Source: patent publication EP0212822A1, “A composition containing a plant growth regulator and an alkanol and a method of using the same” (ICI AMERICAS INC., priority 1985, dated 1987)

How the values were obtained:
[1] = test system: Water Oak; test: Trunk injection, holes at 4 inch intervals, Retardation and Uniformity Ratings; assay type: in vivo, Quercus nigra (Water Oak); design: key to Uniformity Rating (U): 0 = no effect from PGR; 1 = poor; 2 = fair; 3 = acceptable; 4 = very good; 5 = excellent; settings: 38 ml/hole
Description: (§1) The examples which follow exemplify the improvements obtained by this invention. However, these examples are not intended to limit the scope of the invention. In Examples 1-41, the subject trees were injected at a distance approximately one foot from the soil line by drilling 7/32 inch diameter holes to a 2 inch depth at a 30-45° angle tangential to the trunk with a pressure injector (150 psi) purchased from the Asplundh Tree Expert Co., Company No. 346-3502. The results are expressed in terms of Retardation and Uniformity Ratings. The Retardation rating scale is as follows: • 0 = no retardataion • 1 = 1-20% retardation • 2 = 21-40% retardation • 3 = 41-60% retardation • 4 = 61-80% retardation • 5 = 81-100% retardation
(§2) The Uniformity Rating is a measure of the consistency of response to the treatment between different branches of the tree. The Uniformity scale employed is as follows: • 0 = no effect from PGR • 1 = poor • 2 = fair • 3 = acceptable • 4 = very good • 5 = excellent
10 (0.034 moles), 20 (0.068 moles) and 40 grams (0.136 moles) of (2RS, 3RS)-1-(4-chlorophenyl)-4,4-dimethyl-2-l,2,4-triazol-l-yl)pentan-3-ol (PGR) were dissolved in 1,1 and 1 liter, respectively, of methanol at room temperature and was stirred until the solution was clear, approximately 20 to 60 minutes. In these examples, the injection holes were placed at approximate 4 inch intervals.

[2] = test system: Sycamore; test: Trunk injection, holes at 8 inch intervals, Retardation and Uniformity Ratings; assay type: in vivo, Platanus occidentalis (Sycamore); design: key to Uniformity Rating (U): 0 = no effect from PGR; 1 = poor; 2 = fair; 3 = acceptable; 4 = very good; 5 = excellent; settings: 75 ml/hole
Description: as §1, §2
10 (0.034 moles), 20 (0.068 moles) and 40 grams (0.136 moles) of (2RS, 3RS)-1-(4-chlorophenyl)-4,4-dimethyl-2-1,2,4-triazol-1-yl)pentan-3-ol (PGR) was dissolved in 1,1 and 1 liter, respectively, of methanol at room temperature and was stirred until the solution was clear, approximately 20 to 60 minutes. In these examples, the injection holes were placed at approximate 8 inch intervals.

[3] = Solubility in methanol water mixtures (HPLC and UV absorption); assay type: physicochemical
Description: An excess of compound of formula (II) was shaken with methanol water mixtures for a minimum of 4 hours. Samples were passed through a micropore filter to remove undissolved solid, and then centrifuged to remove any emulsified material. The resulting saturated solutions were analyzed by both HPLC and UV absorption against known standard solutions. […] In water alone, solubility is only 35 mg 1^-1 (ppm). Thus, formulations of formula (II) in methanol are low in viscosity when injected, and the PGR will rapidly precipitate within the trunk as the methanol becomes diluted with transpiration water.

[4] = test system: Malus communis (Apple); test: Trunk injection, percent of growth based upon a control; assay type: in vivo; settings: 35 days after treatment
Description: as §1
(2RS, 3RS)-1-(4-chlorophenyl-4,4-dimethyl-2,-1,2,4-triazol-1-yl)pentan-3-ol (PGR) was dissolved in 1 liter of solvent at room temperature and the resulting solution was stirred until clear, approximately 20 to 30 minutes. Two equal aliquots of the resulting solution were injected into two injection holes of the trunk of Malus communis (Apple) having a trunk diameter at the point of injection approximately 4 to 5 inches. The injection holes were approximately 12 inches above the soil surface. The percent of growth, based upon a control, was measured 35 days after treatment.

[5] = test system: Siberian Elm; test: Trunk injection of trees (Brown method), Retardation and Uniformity Ratings; assay type: in vivo, Ulmus pumila (Siberian Elm); design: key to Uniformity Rating (U): 0 = no effect from PGR; 1 = poor; 2 = fair; 3 = acceptable; 4 = very good; 5 = excellent; settings: 10 g (II) in 1 liter methanol
Description: A method of tree injection and apparatus employed herein is discussed in G. K. Brown, "Prototype Equipment for Commercial Pressure - Injection of Aqueous Growth Regulators Into Trees," Journal of Arboriculture, Vol. 4, pp. 7-13, 1978, and in the references noted therein. Under the Brown method the number of injection holes and total injection volume (TIV) of PGR solution is determined by measuring the diameter of the tree at DBH and using the following formulae: […]
as §1, §2
10 (0.034 moles) grams of (2RS,3RS)-1-(4-chlorophenyl)-4,4-dimethyl-2-1,2,4-triazol-1-yl)pen- tan-3-ol (II) of the formula [drawing 41] was dissolved in 1 liter of methanol at room temperature and was stirred until the solution was clear, approximately 20 minutes.
In these examples, the number of injection holes, volume per injection hole and total injection volume in ml was determined from the DBH in accordance' with the Brown method.

[6] = week 24, 10 g PGR in 1 liter methanol
[7] = week 56, 10 g PGR in 1 liter methanol
[8] = week 24, 20 g PGR in 1 liter methanol
[9] = week 56, 20 g PGR in 1 liter methanol
[10] = week 14 after treatment, listed as 1, 12 in. DBH tree, 229 ml per tree
[11] = week 14 after treatment, listed as 2, 17 in. DBH tree, 432 ml per tree
[12] = week 14 after treatment, listed as 3, 13 in. DBH tree, 268 ml per tree
[13] = week 14 after treatment, listed as 4, 11 in. DBH tree, 192 ml per tree
[14] = week 14 after treatment, listed as 5, 15 in. DBH tree, 119 ml per tree
[15] = week 14 after treatment, listed as 6, 11 in. DBH tree, 192 ml per tree
[16] = week 67 after treatment, listed as 1, 12 in. DBH tree, 229 ml per tree
[17] = week 67 after treatment, listed as 2, 17 in. DBH tree, 432 ml per tree
[18] = week 67 after treatment, listed as 3, 13 in. DBH tree, 268 ml per tree
[19] = week 67 after treatment, listed as 4, 11 in. DBH tree, 192 ml per tree
[20] = week 67 after treatment, listed as 5, 15 in. DBH tree, 119 ml per tree
[21] = week 67 after treatment, listed as 6, 11 in. DBH tree, 192 ml per tree

Structure (SMILES): CC(C)(C)[C@@H](O)[C@@H](Cc1ccc(Cl)cc1)n1cncn1 (racemic) [Formula (II), (2RS,3RS)-1-(4-chlorophenyl-4,4-dimethyl-2-1,2,4-triazol-1-yl)pentan-3-ol]
- Retardation Rating (R) [1, 6]: 5 (5 = 81-100% retardation)
- Uniformity Rating (U) [1, 6]: 5
- Retardation Rating (R) [1, 7]: 5 (5 = 81-100% retardation)
- Uniformity Rating (U) [1, 7]: 5
- Retardation Rating (R) [2, 8]: 3 (3 = 41-60% retardation)
- Uniformity Rating (U) [2, 8]: 4
- Retardation Rating (R) [2, 9]: 4 (4 = 61-80% retardation)
- Uniformity Rating (U) [2, 9]: 4
- solubility at 4 h ([3]; in water alone): 35 µg/mL
- solubility at 4 h ([3]; organic solvent or mixture, 10 % Methanol in water): 53 µg/mL
- solubility at 4 h ([3]; organic solvent or mixture, 20 % Methanol in water): 89 µg/mL
- solubility at 4 h ([3]; organic solvent or mixture, 50 % Methanol in water): 1200 µg/mL
- solubility at 4 h ([3]; organic solvent or mixture, 100 % Methanol): 56000 µg/mL
- solubility at 4 h ([3]; water (0% methanol), organic solvent or mixture, 0 % Methanol): 35 µg/mL
- Growth, % of Control ([4]; 2 g PGR in 1 liter Water, total inj. vol. not given): 84 % of Control
- Growth, % of Control ([4]; 2.5 g PGR in 1 liter Ethanol, total inj. vol. 200 ml): 58 % of Control
- Growth, % of Control ([4]; 5 g PGR in 1 liter Ethanol, total inj. vol. 100 ml): 59 % of Control
- Growth, % of Control ([4]; 5 g PGR in 1 liter Ethanol, total inj. vol. 200 ml): 58 % of Control
- Growth, % of Control ([4]; 10 g PGR in 1 liter Ethanol, total inj. vol. 50 ml): 70 % of Control
- Growth, % of Control ([4]; 10 g PGR in 1 liter Ethanol, total inj. vol. 100 ml): 76 % of Control
- Growth, % of Control ([4]; 10 g PGR in 1 liter Ethanol, total inj. vol. 200 ml): 56 % of Control
- Growth, % of Control ([4]; 10 g PGR in 1 liter Methanol, total inj. vol. 200 ml): 59 % of Control
- Growth, % of Control ([4]; 10 g PGR in 1 liter Water, total inj. vol. 50 ml): 100 % of Control
- Growth, % of Control ([4]; 10 g PGR in 1 liter Water, total inj. vol. 100 ml): 103 % of Control
- Growth, % of Control ([4]; 20 g PGR in 1 liter Ethanol, total inj. vol. 25 ml): 79 % of Control
- Growth, % of Control ([4]; 20 g PGR in 1 liter Ethanol, total inj. vol. 50 ml): 82 % of Control
- Growth, % of Control ([4]; 20 g PGR in 1 liter Ethanol, total inj. vol. 100 ml): 60 % of Control
- Growth, % of Control ([4]; 20 g PGR in 1 liter Methanol, total inj. vol. 100 ml): 60 % of Control
- Growth, % of Control ([4]; 40 g PGR in 1 liter Ethanol, total inj. vol. 25 ml): 77 % of Control
- Growth, % of Control ([4]; 40 g PGR in 1 liter Ethanol, total inj. vol. 50 ml): 72 % of Control
- Growth, % of Control ([4]; 40 g PGR in 1 liter Methanol, total inj. vol. 50 ml): 76 % of Control
- Growth, % of Control ([4]; 40 g PGR in 1 liter Methanol, total inj. vol. 100 ml): 52 % of Control
- Growth, % of Control ([4]; 50 g PGR in 1 liter Ethanol, total inj. vol. 10 ml): 90 % of Control
- Growth, % of Control ([4]; 80 g PGR in 1 liter Methanol, total inj. vol. 25 ml): 68 % of Control
- Retardation Rating (R) [5, 10]: 3 (3 = 41-60% retardation)
- Uniformity Rating (U) [5, 10]: 4
- Retardation Rating (R) [5, 11]: 3 (3 = 41-60% retardation)
- Uniformity Rating (U) [5, 11]: 3
- Retardation Rating (R) [5, 12]: 4 (4 = 61-80% retardation)
- Uniformity Rating (U) [5, 12]: 4
- Retardation Rating (R) [5, 13]: 4 (4 = 61-80% retardation)
- Uniformity Rating (U) [5, 13]: 4
- Retardation Rating (R) [5, 14]: 3 (3 = 41-60% retardation)
- Uniformity Rating (U) [5, 14]: 5
- Retardation Rating (R) [5, 15]: 3 (3 = 41-60% retardation)
- Uniformity Rating (U) [5, 15]: 4
- Retardation Rating (R) [5, 16]: 5 (5 = 81-100% retardation)
- Uniformity Rating (U) [5, 16]: 5
- Retardation Rating (R) [5, 17]: 4 (4 = 61-80% retardation)
- Uniformity Rating (U) [5, 17]: 3
- Retardation Rating (R) [5, 18]: 4 (4 = 61-80% retardation)
- Uniformity Rating (U) [5, 18]: 4
- Retardation Rating (R) [5, 19]: 5 (5 = 81-100% retardation)
- Uniformity Rating (U) [5, 19]: 5
- Retardation Rating (R) [5, 20]: 5 (5 = 81-100% retardation)
- Uniformity Rating (U) [5, 20]: 5
- Retardation Rating (R) [5, 21]: 5 (5 = 81-100% retardation)
- Uniformity Rating (U) [5, 21]: 5
